Converted amounts (≈) assume the structure as drawn.
Tests used:
Type in all cases: functional
[1] = system: Parabacteroides distasonis; assay: Antimicrobial activity against Parabacteroides distasonis by Wadsworth agar dilution method
Bacteroides fragilis = assay: Antimicrobial activity against Bacteroides fragilis by Wadsworth agar dilution method
[2] = system: Parabacteroides goldsteinii; assay: Antimicrobial activity against Parabacteroides goldsteinii by Wadsworth agar dilution method
Bacteroides stercoris = assay: Antimicrobial activity against Bacteroides stercoris by Wadsworth agar dilution method
Bilophila wadsworthia = assay: Antimicrobial activity against Bilophila wadsworthia by Wadsworth agar dilution method in presence of 1% pyruvic acid
Desulfovibrio piger = assay: Antimicrobial activity against Desulfovibrio piger by Wadsworth agar dilution method
Desulfovibrio sp. = assay: Antimicrobial activity against Desulfovibrio sp. by Wadsworth agar dilution method
Fusobacterium mortiferum [3] = assay: Antimicrobial activity against Fusobacterium mortiferum by Wadsworth agar dilution method in presence of beta-lactamase inhibitor Sulbactam
Porphyromonas = assay: Antimicrobial activity against Porphyromonas sp. by Wadsworth agar dilution method
[4] = system: Porphyromonas asaccharolytica; assay: Antimicrobial activity against Porphyromonas asaccharolyticus by Wadsworth agar dilution method
Porphyromonas somerae = assay: Antimicrobial activity against Porphyromonas somerae by Wadsworth agar dilution method
Porphyromonas uenonis = assay: Antimicrobial activity against Porphyromonas uenonis by Wadsworth agar dilution method
Prevotella corporis = assay: Antimicrobial activity against Prevotella corporis by Wadsworth agar dilution method
[Clostridium] innocuum = Antimicrobial activity against Clostridium innocuum by Wadsworth agar dilution method
[5] = system: Clostridium acetobutylicum; assay: Antimicrobial activity against Clostridium acetobutylicum by Wadsworth agar dilution method
Clostridium bartlettii = assay: Antimicrobial activity against Clostridium bartlettii by Wadsworth agar dilution method; conditions: Intestinibacter bartlettii
Clostridium beijerinckii = assay: Antimicrobial activity against Clostridium beijerinckii by Wadsworth agar dilution method
Clostridium bolteae = assay: Antimicrobial activity against Clostridium bolteae by Wadsworth agar dilution method; conditions: Enterocloster bolteae
Clostridium cocleatum = assay: Antimicrobial activity against Clostridium cocleatum by Wadsworth agar dilution method; conditions: Thomasclavelia cocleata
Clostridium fallax = assay: Antimicrobial activity against Clostridium fallax by Wadsworth agar dilution method
Clostridium glycolicum = assay: Antimicrobial activity against Clostridium glycolicum by Wadsworth agar dilution method; conditions: Terrisporobacter glycolicus
Clostridium nexile = assay: Antimicrobial activity against Clostridium nexile by Wadsworth agar dilution method; conditions: Faecalimonas nexilis
[6] = system: Clostridium paraputrificum; assay: Antimicrobial activity against Clostridium paraputrificum by Wadsworth agar dilution method
Thomasclavelia ramosa = assay: Antimicrobial activity against Clostridium ramosum by Wadsworth agar dilution method
Fusobacterium mortiferum [7] = assay: Antimicrobial activity against Clostridium rectum by Wadsworth agar dilution method
[8] = system: Paeniclostridium sordellii; assay: Antimicrobial activity against Clostridium sordellii by Wadsworth agar dilution method; conditions: Paraclostridium sordellii
Clostridium spiroforme = assay: Antimicrobial activity against Clostridium spiroforme by Wadsworth agar dilution method; conditions: Thomasclavelia spiroformis
Clostridium sporogenes = assay: Antimicrobial activity against Clostridium sporogenes by Wadsworth agar dilution method
Schaalia odontolytica = assay: Antimicrobial activity against Actinomyces odontolyticus by Wadsworth agar dilution method
Actinomyces viscosus = assay: Antimicrobial activity against Actinomyces viscosus by Wadsworth agar dilution method
Bifidobacterium bifidum = assay: Antimicrobial activity against Bifidobacterium bifidum by Wadsworth agar dilution method
Bifidobacterium breve = assay: Antimicrobial activity against Bifidobacterium breve by Wadsworth agar dilution method
Bifidobacterium longum = assay: Antimicrobial activity against Bifidobacterium longum by Wadsworth agar dilution method
[9] = Antimicrobial activity against Bifidobacterium pseudocatenulatum by Wadsworth agar dilution method
[10] = system: Catenibacterium mitsuokai; assay: Antimicrobial activity against Catenibacterium mitsuokai by Wadsworth agar dilution method
[11] = system: Pseudoramibacter alactolyticus; assay: Antimicrobial activity against Eubacterium alactolyticum by Wadsworth agar dilution method
Eubacterium callanderi = assay: Antimicrobial activity against Eubacterium callanderi by Wadsworth agar dilution method
[12] = system: Lactobacillus catenaformis; assay: Antimicrobial activity against Lactobacillus catenaformis by Wadsworth agar dilution method; conditions: Eggerthia catenaformis
[13] = system: Limosilactobacillus fermentum; assay: Antimicrobial activity against Lactobacillus fermentum by Wadsworth agar dilution method
Lactobacillus sp. = assay: Antimicrobial activity against Lactobacillus sp. by Wadsworth agar dilution method
Propionibacterium avidum = assay: Antimicrobial activity against Propionibacterium avidum by Wadsworth agar dilution method; conditions: Cutibacterium avidum
Anaerococcus prevotii = assay: Antimicrobial activity against Anaerococcus prevotii by Wadsworth agar dilution method
Finegoldia magna = assay: Antimicrobial activity against Finegoldia magna by Wadsworth agar dilution method
[14] = system: Ruminococcus flavefaciens; assay: Antimicrobial activity against Ruminococcus flavefaciens by Wadsworth agar dilution method
Ruminococcus gnavus = assay: Antimicrobial activity against Ruminococcus gnavus by Wadsworth agar dilution method; conditions: Mediterraneibacter gnavus
Ruminococcus obeum = assay: Antimicrobial activity against Ruminococcus obeum by Wadsworth agar dilution method; conditions: Blautia obeum
Ruminococcus torques = assay: Antimicrobial activity against Ruminococcus torques by Wadsworth agar dilution method; conditions: Mediterraneibacter torques

Structure (SMILES): CC(=O)Oc1ccccc1C(=O)Nc1ncc([N+](=O)[O-])s1 [NITAZOXANIDE]
- MIC50 [1]: 4 µg/mL (≈ 13 µM)
- MIC90 [1]: 4 µg/mL (≈ 13 µM)
- MIC50 (Bacteroides fragilis): 4 µg/mL (≈ 13 µM)
- MIC90 (Bacteroides fragilis): 4 µg/mL (≈ 13 µM)
- MIC50 [2]: 4 µg/mL (≈ 13 µM)
- MIC90 [2]: 4 µg/mL (≈ 13 µM)
- MIC50 (Bacteroides stercoris): 4 µg/mL (≈ 13 µM)
- MIC90 (Bacteroides stercoris): 4 µg/mL (≈ 13 µM)
- MIC50 (Bilophila wadsworthia): 4 µg/mL
- MIC90 (Bilophila wadsworthia): 4 µg/mL
- MIC50 (Desulfovibrio piger): 1 µg/mL (≈ 3.25 µM)
- MIC90 (Desulfovibrio piger): 4 µg/mL (≈ 13 µM)
- MIC50 (Desulfovibrio sp.): 1 µg/mL (≈ 3.25 µM)
- MIC90 (Desulfovibrio sp.): 4 µg/mL (≈ 13 µM)
- MIC50 (Fusobacterium mortiferum [3]): 1 µg/mL
- MIC90 (Fusobacterium mortiferum [3]): 8 µg/mL
- MIC50 (Porphyromonas): 0.5 µg/mL (≈ 1.63 µM)
- MIC90 (Porphyromonas): 1 µg/mL (≈ 3.25 µM)
- MIC50 [4]: 0.5 µg/mL (≈ 1.63 µM)
- MIC90 [4]: 1 µg/mL (≈ 3.25 µM)
- MIC50 (Porphyromonas somerae): 0.5 µg/mL (≈ 1.63 µM)
- MIC90 (Porphyromonas somerae): 1 µg/mL (≈ 3.25 µM)
- MIC50 (Porphyromonas uenonis): 0.5 µg/mL (≈ 1.63 µM)
- MIC90 (Porphyromonas uenonis): 1 µg/mL (≈ 3.25 µM)
- MIC50 (Prevotella corporis): 4 µg/mL (≈ 13 µM)
- MIC90 (Prevotella corporis): 8 µg/mL (≈ 26 µM)
- MIC50 ([Clostridium] innocuum): 1 µg/mL (≈ 3.25 µM)
- MIC90 ([Clostridium] innocuum): 4 µg/mL (≈ 13 µM)
- MIC50 [5]: 0.5 µg/mL (≈ 1.63 µM)
- MIC90 [5]: 4 µg/mL (≈ 13 µM)
- MIC50 (Clostridium bartlettii): 0.5 µg/mL (≈ 1.63 µM)
- MIC90 (Clostridium bartlettii): 4 µg/mL (≈ 13 µM)
- MIC50 (Clostridium beijerinckii): 0.5 µg/mL (≈ 1.63 µM)
- MIC90 (Clostridium beijerinckii): 4 µg/mL (≈ 13 µM)
- MIC50 (Clostridium bolteae): 0.5 µg/mL (≈ 1.63 µM)
- MIC90 (Clostridium bolteae): 4 µg/mL (≈ 13 µM)
- MIC50 (Clostridium cocleatum): 0.5 µg/mL (≈ 1.63 µM)
- MIC90 (Clostridium cocleatum): 4 µg/mL (≈ 13 µM)
- MIC50 (Clostridium fallax): 0.5 µg/mL (≈ 1.63 µM)
- MIC90 (Clostridium fallax): 4 µg/mL (≈ 13 µM)
- MIC50 (Clostridium glycolicum): 0.5 µg/mL (≈ 1.63 µM)
- MIC90 (Clostridium glycolicum): 4 µg/mL (≈ 13 µM)
- MIC50 (Clostridium nexile): 0.5 µg/mL (≈ 1.63 µM)
- MIC90 (Clostridium nexile): 4 µg/mL (≈ 13 µM)
- MIC50 [6]: 0.5 µg/mL (≈ 1.63 µM)
- MIC90 [6]: 4 µg/mL (≈ 13 µM)
- MIC50 (Thomasclavelia ramosa): 0.5 µg/mL (≈ 1.63 µM)
- MIC90 (Thomasclavelia ramosa): 4 µg/mL (≈ 13 µM)
- MIC50 (Fusobacterium mortiferum [7]): 0.5 µg/mL (≈ 1.63 µM)
- MIC90 (Fusobacterium mortiferum [7]): 4 µg/mL (≈ 13 µM)
- MIC50 [8]: 0.5 µg/mL (≈ 1.63 µM)
- MIC90 [8]: 4 µg/mL (≈ 13 µM)
- MIC50 (Clostridium spiroforme): 0.5 µg/mL (≈ 1.63 µM)
- MIC90 (Clostridium spiroforme): 4 µg/mL (≈ 13 µM)
- MIC50 (Clostridium sporogenes): 0.5 µg/mL (≈ 1.63 µM)
- MIC90 (Clostridium sporogenes): 4 µg/mL (≈ 13 µM)
- MIC50 (Schaalia odontolytica): 2 µg/mL (≈ 6.51 µM)
- MIC90 (Schaalia odontolytica): 32 µg/mL (≈ 104 µM)
- MIC50 (Actinomyces viscosus): 2 µg/mL (≈ 6.51 µM)
- MIC90 (Actinomyces viscosus): 32 µg/mL (≈ 104 µM)
- MIC50 (Bifidobacterium bifidum): 2 µg/mL (≈ 6.51 µM)
- MIC90 (Bifidobacterium bifidum): 32 µg/mL (≈ 104 µM)
- MIC50 (Bifidobacterium breve): 2 µg/mL (≈ 6.51 µM)
- MIC90 (Bifidobacterium breve): 32 µg/mL (≈ 104 µM)
- MIC50 (Bifidobacterium longum): 2 µg/mL (≈ 6.51 µM)
- MIC90 (Bifidobacterium longum): 32 µg/mL (≈ 104 µM)
- MIC50 [9]: 2 µg/mL (≈ 6.51 µM)
- MIC90 [9]: 32 µg/mL (≈ 104 µM)
- MIC50 [10]: 2 µg/mL (≈ 6.51 µM)
- MIC90 [10]: 32 µg/mL (≈ 104 µM)
- MIC50 [11]: 2 µg/mL (≈ 6.51 µM)
- MIC90 [11]: 32 µg/mL (≈ 104 µM)
- MIC50 (Eubacterium callanderi): 2 µg/mL (≈ 6.51 µM)
- MIC90 (Eubacterium callanderi): 32 µg/mL (≈ 104 µM)
- MIC50 [12]: 2 µg/mL (≈ 6.51 µM)
- MIC90 [12]: 32 µg/mL (≈ 104 µM)
- MIC50 [13]: 2 µg/mL (≈ 6.51 µM)
- MIC90 [13]: 32 µg/mL (≈ 104 µM)
- MIC50 (Lactobacillus sp.): 2 µg/mL (≈ 6.51 µM)
- MIC90 (Lactobacillus sp.): 32 µg/mL (≈ 104 µM)
- MIC50 (Propionibacterium avidum): 2 µg/mL (≈ 6.51 µM)
- MIC90 (Propionibacterium avidum): 32 µg/mL (≈ 104 µM)
- MIC50 (Anaerococcus prevotii): 0.5 µg/mL (≈ 1.63 µM)
- MIC90 (Anaerococcus prevotii): 1 µg/mL (≈ 3.25 µM)
- MIC50 (Finegoldia magna): 0.5 µg/mL (≈ 1.63 µM)
- MIC90 (Finegoldia magna): 1 µg/mL (≈ 3.25 µM)
- MIC50 [14]: 0.5 µg/mL (≈ 1.63 µM)
- MIC90 [14]: 1 µg/mL (≈ 3.25 µM)
- MIC50 (Ruminococcus gnavus): 0.5 µg/mL (≈ 1.63 µM)
- MIC90 (Ruminococcus gnavus): 1 µg/mL (≈ 3.25 µM)
- MIC50 (Ruminococcus obeum): 0.5 µg/mL (≈ 1.63 µM)
- MIC90 (Ruminococcus obeum): 1 µg/mL (≈ 3.25 µM)
- MIC50 (Ruminococcus torques): 0.5 µg/mL (≈ 1.63 µM)
- MIC90 (Ruminococcus torques): 1 µg/mL (≈ 3.25 µM)

— ChEMBL document CHEMBL1275577, “Study of the in vitro activities of rifaximin and comparator agents against 536 anaerobic intestinal bacteria from the perspective of potential utility in pathology involving bowel flora” (Antimicrob Agents Chemother, 2009)
